Read-outs that look alike come from different tables or passages of the source.
Target: T1, HDM2 (Homo sapiens, UniProt Q00987)
T1 construct: Thioredoxin (N); made in house; host or cells: E. coli strain BL21(DE3)Rosetta
Assay: HDM2 FRET assay (inhibition of binding of FITC labeled p53-pocket peptide to HDM2)
Settings: for IC50: read-out: FRET IC50
Method in brief: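 Displacement of FITC-p53 peptide (3 nM) from His-tagged HDM2 (0.5 nM) is measured by Tb-to-fluorescein FRET in PBS, 0.01% BSA, 0.01% Tween-20. IC50 values derive from 10-point curves.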

[1] = 0.5 nM HDM2 (residues 17 to 125), 3nM peptide, two hour incubation at room temperature

T1 sequence (Q00987 17-125): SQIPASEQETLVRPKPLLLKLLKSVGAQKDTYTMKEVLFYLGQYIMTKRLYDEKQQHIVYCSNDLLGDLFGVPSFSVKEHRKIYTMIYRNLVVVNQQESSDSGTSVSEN

C[C@@H](Nc1nc(-c2noc(=O)[nH]2)nc2nc(N3CCC[C@H]3C(F)(F)F)n(C[C@H]3CC[C@H](C)CC3)c12)C1CCC1 [Example 11.128, 3-(6-{[(1R)-1-cyclobutylethyl]amino}-7-[(trans-4-methylcyclohexyl)methyl]-8-[(2S)-2-(trifluoromethyl)pyrrolidin-1-yl]-7H-purin-2-yl)-1,2,4-oxadiazol-5(4H)-one]
IC50 (Table 11): 0.642 nM

Cc1cccc(-c2nc3nc(C(=O)O)nc(N[C@H](CCC(=O)NCCO)C4CCC4)c3n2Cc2ccc(C(F)(F)F)cc2)c1 [Example 7.7, 6-({(1R)-1-cyclobutyl-4-[(2-hydroxyethyl)amino]-4-oxobutyl}amino)-8-(3-methylphenyl)-7-[4-(trifluoromethyl)benzyl]-7H-purine-2-carboxylic acid]
IC50 (Table 7): 832 nM

C[C@@H](Nc1nc(-c2noc(=O)[nH]2)nc2nc(C3(c4ccccc4F)CC3)n(C[C@H]3CC[C@H](C)CC3)c12)C1CCC1 [Example 22.5, 3-(6-{[(1R)-1-cyclobutylethyl]amino}-8-[1-(2-fluorophenyl)cyclopropyl]-7-[(trans-4-methylcyclohexyl)methyl]-7H-purin-2-yl)-1,2,4-oxadiazol-5(4H)-one]
IC50 (Table 22): 3.57 nM

C[C@@H](Nc1nc(C(=O)O)nc2nc(N3CCOC[C@@H]3c3ccccc3)n(Cc3ccc(C(F)(F)F)cc3)c12)C1CCC1 [Example 9.51, 6-{[(1R)-1-cyclobutylethyl]amino}-8-[(3S)-3-phenylmorpholin-4-yl]-7-[4-(trifluoromethyl)benzyl]-7H-purine-2-carboxylic acid]
IC50 (Table 9): 120 nM

C[C@@H](Nc1nc(C(=O)O)nc2nc(C3CCCCN3C)n(Cc3ccc(C(F)(F)F)cc3)c12)C1CCC1 (stereo partly drawn) [Example 10.23, 6-(((R)-1-Cyclobutylethyl)amino)-8-(1-methylpiperidin-2-yl)-7-(4-(trifluoromethyl)benzyl)-7H-purine-2-carboxylic acid]
IC50 (Table 10): 48 nM

C[C@@H](Nc1nc(-c2n[nH]c(=O)o2)nc2nc(N3CCOC4CCCC43)n(C[C@H]3CC[C@H](C)CC3)c12)C1CCC1 (single isomer, unassigned) [Example 11.141]
IC50 (Table 11): 0.841 nM

C[C@@H](Nc1nc(C(=O)O)nc2nc(N3CCC4CCCCC4C3)n(C[C@H]3CC[C@H](C)CC3)c12)C1CCC1 (stereo partly drawn) [Example 11.22, 6-{[(1R)-1-cyclobutylethyl]amino}-7-[(trans-4-methylcyclohexyl)methyl]-8-(octahydroisoquinolin-2(1H)-yl)-7H-purine-2-carboxylic acid]
IC50 (Table 11): 18 nM

C[C@@H](Nc1nc(-c2noc(=O)[nH]2)nc2nc(N3CCCCC3Cc3ccccc3)n(Cc3ccc(C(F)(F)F)cc3)c12)C1CCC1 (stereo partly drawn) [Example 9.109, 3-{8-(2-benzylpiperidin-1-yl)-6-{[(1R)-1-cyclobutylethyl]amino}-7-[4-(trifluoromethyl)benzyl]-7H-purin-2-yl}-1,2,4-oxadiazol-5(4H)-one]
IC50 (Table 9): 59.9 nM

C[C@@H](Nc1nc(-c2noc(=O)[nH]2)nc2nc(N3CCCC3(C)C)n(Cc3ccc(C(F)(F)F)cc3)c12)C1CCC1 [Example 9.83, 3-(6-{[(1R)-1-cyclobutylethyl]amino}-8-(2,2-dimethylpyrrolidin-1-yl)-7-[4-(trifluoromethyl)benzyl]-7H-purin-2-yl)-1,2,4-oxadiazol-5(4H)-one]
IC50 (Table 9): 25.6 nM

COC1CCN(c2nc3nc(-c4noc(=O)[nH]4)nc(N[C@H](C)C4CCC4)c3n2C[C@H]2CC[C@H](C)CC2)C1 (stereo partly drawn) [Example 11.114, 3-(6-{[(1R)-1-cyclobutylethyl]amino}-8-(3-methoxypyrrolidin-1-yl)-7-[(trans-4-methylcyclohexyl)methyl]-7H-purin-2-yl)-1,2,4-oxadiazol-5(2H)-one]
IC50 (Table 11): 52.9 nM

CC[S+]([O-])c1nc(N[C@H](C)C2CCC2)c2c(n1)nc(N1CCOC[C@H]1c1ccccc1)n2C[C@H]1CC[C@H](C)CC1 (stereo partly drawn) [Example 14.7, N-[(1R)-1-cyclobutylethyl]-2-(ethylsulfinyl)-7-[(trans-4-methylcyclohexyl)methyl]-8-[(3R)-3-phenylmorpholin-4-yl]-7H-purin-6-amine]
IC50 [1]: 12.2 nM

Cc1cccc(-c2nc(-c3n[nH]c(=O)o3)nc3nc(N4CCOC[C@H]4C)n(C[C@H]4CC[C@H](C)CC4)c23)c1 [Example 16.32, 5-{7-[(trans-4-methylcyclohexyl)methyl]-8-[(3R)-3-methylmorpholin-4-yl]-6-(3-methylphenyl)-7H-purin-2-yl} -1,3,4-oxadiazol-2(3H)-one]
IC50 [1]: 60.5 nM

C[C@@H]1COCCN1c1nc2nc(-c3noc(=O)[nH]3)nc(-c3cccc(Cl)c3)c2n1C[C@H]1CC[C@H](C)CC1 [Example 16.6, 3-(6-(3-chlorophenyl)-7-(((trans)-4-methylcyclohexyl)methyl)-8-((R)-3-methylmorpholino)-7H-purin-2-yl)-1,2,4-oxadiazol-5(4H)-one]
IC50 [1]: 8.05 nM

C[C@@H](Nc1nc(N(C)CC(=O)O)nc2nc(N3CCOC[C@H]3c3ccccc3)n(C[C@H]3CC[C@H](C)CC3)c12)C1CCC1 [Example 13.8, N-(6-{[(1R)-1-cyclobutylethyl]amino}-7-[(trans-4-methylcyclohexyl)methyl]-8-[(3R)-3-phenylmorpholin-4-yl]-7H-purin-2-yl)-N-methylglycine]
IC50 [1]: 120 nM

C[C@@H]1CNCCN1c1nc2nc(-c3noc(=O)[nH]3)nc(N[C@H](C)C3CCC3)c2n1C[C@H]1CC[C@H](C)CC1 [Example 17.19, 3-(6-{[(1R)-1-cyclobutylethyl]amino}-7-[(trans-4-methylcyclohexyl)methyl]-8-[(2R)-2-methylpiperazin-1-yl]-7H-purin-2-yl)-1,2,4-oxadiazol-5(4H)-one]
IC50 (Table 17.2): 15.5 nM

C[C@@H](Nc1nc(-c2noc(=O)[nH]2)nc2nc(-n3ccnc3)n(C[C@H]3CC[C@H](C)CC3)c12)C1CCC1 [Example 11.57, 3-(6-{[(1R)-1-cyclobutylethyl]amino}-8-(1H-imidazol-1-yl)-7-[(trans-4-methylcyclohexyl)methyl]-7H-purin-2-yl)-1,2,4-oxadiazol-5(4H)-one]
IC50 (Table 11): 16.4 nM

C[C@@H](Nc1nc(-c2noc(=O)[nH]2)nc2nc(C(C)(O)c3nccs3)n(C[C@H]3CC[C@H](C)CC3)c12)C1CCC1 (stereo partly drawn) [Example 22.56, 3-(6-{[(1R)-1-cyclobutylethyl]amino}-8-[1-hydroxy-1-(1,3-thiazol-2-yl)ethyl]-7-[(trans-4-methylcyclohexyl)methyl] -7H-purin-2-yl)-1,2,4-oxadiazol-5(4H)-one]
IC50 (Table 22): 2.45 nM

CC(c1ccccc1F)c1nc2nc(-c3noc(=O)[nH]3)nc(N[C@H](C)C3CCC3)c2n1C[C@H]1CC[C@H](C)CC1 (single isomer, unassigned) [Example 21.35]
IC50 (Table 21): 2.03 nM

Cc1cccc(-c2nc3nc(C(=O)O)nc(N4CCCC4C4CCCCC4)c3n2Cc2ccc(C(F)(F)F)cc2)c1 (centres unmarked) [Example 6.80, 6-(2-cyclohexylpyrrolidin-1-yl)-8-(3-methylphenyl)-7-[4-(trifluoromethyl)benzyl]-7H-purine-2-carboxylic acid]
inhibition at 1 µM (read-out: inh. at 1000 nM (FRET)): 40%

C[C@H]1CC[C@H](Cn2c(N3CCO[C@H]4CCC[C@@H]43)nc3nc(-c4n[nH]c(=O)o4)nc(-c4cncc(Cl)c4)c32)CC1 [Example 16.91, 5-{6-(5-chloropyridin-3-yl)-8-[(4aS,7aS)-hexahydrocyclopenta [b][1,4]oxazin-4(4aH)-yl]-7-[(trans-4-methylcyclohexyl)methyl]-7H-purin-2-yl}-1,3,4-oxadiazol-2(3H)-one]
IC50 [1]: 403 nM

CC(C)(O)c1ccnc(-c2nc3nc(-c4noc(=O)[nH]4)nc(-c4cccc(Cl)c4)c3n2C[C@H]2CC[C@H](C)CC2)c1 [Example 16.36, 3-{6-(3-chlorophenyl)-8-[4-(1-hydroxy-1-methylethyl)pyridin-2-yl]-7-[(trans-4-methylcyclohexyl)methyl]-7H-purin-2-yl}-1,2,4-oxadiazol-5(4H)-one]
IC50 [1]: 26.2 nM

CC(=O)N1C[C@@H](C)N(c2nc3nc(-c4noc(=O)[nH]4)nc(N[C@H](C)C4CCC4)c3n2C[C@H]2CC[C@H](C)CC2)C[C@@H]1C [Example 17.22, 3-{8-[(2R,5S)-4-acetyl-2,5-dimethylpiperazin-1-yl]-6-{[(1R)-1-cyclobutylethyl]amino}-7-[(trans-4-methylcyclohexyl)methyl]-7H-purin-2-yl}-1,2,4-oxadiazol-5(4H)-one]
IC50 (Table 17.2): 4.35 nM

C[C@@H](Nc1nc(C(=O)O)nc2nc(N3CCCCC3Cc3ccc(F)cc3)n(Cc3ccc(C(F)(F)F)cc3)c12)C1CCC1 (stereo partly drawn) [Example 9.69, 6-{[(1R)-1-cyclobutylethyl]amino}-8-[2-(4-fluorobenzyl)piperidin-1-yl]-7-[4-(trifluoromethyl)benzyl]-7H-purine-2-carboxylic acid]
IC50 (Table 9): 7.92 nM

Cc1cccc(-c2nc3nc(C(=O)O)nc(N[C@@H](C)C4CCCCC4)c3n2Cc2ccc(C(F)(F)F)cc2)c1 [Example 6.45, 6-{[(1S)-1-cyclohexylethyl]amino}-8-(3-methylphenyl)-7-[4-(trifluoromethyl)benzyl]-7H-purine-2-carboxylic acid]
IC50 (Table 6): 1610 nM

C[C@@H](Nc1nc(-c2noc(=O)[nH]2)nc2nc(N(C)CC3CCOCC3)n(Cc3ccc(C(F)(F)F)cc3)c12)C1CCC1 [Example 9.93, 3-(6-{[(1R)-1-cyclobutylethyl]amino}-8-[methyl(tetrahydro-2H-pyran-4-ylmethyl)amino]-7-[4-(trifluoromethyl)benzyl]-7H-purin-2-yl)-1,2,4-oxadiazol-5(4H)-one]
IC50 (Table 9): 47 nM

CC1(C)COCCN1c1nc2nc(-c3noc(=O)[nH]3)nc(-c3cccc(Cl)c3)c2n1C[C@H]1CC[C@H](C)CC1 [Example 16.29, 3-{6-(3-chlorophenyl)-8-(3,3-dimethylmorpholin-4-yl)-7-[(trans-4-methylcyclohexyl)methyl]-7H-purin-2-yl}-1,2,4-oxadiazol-5(4H)-one]
IC50 [1]: 5.2 nM

Reference: EP2951180B1, “2,6,7,8 SUBSTITUTED PURINES AS HDM2 INHIBITORS” (Merck Sharp & Dohme Corp., priority 2013, dated 2014)
